# Active and inactive are the calls of the source. No cut-off for these calls is given here.
# Columns and labels:
# CAL-27 [1] = test: Induction of apoptosis in human CAL-27 cells assessed as apoptotic cells at 1 nM incubated for 72 hrs by Annexin V-FITC/propidium iodide staining based flow cytometry analysis (reference value: 10.29%); assay type: functional
# CAL-27 [2] = test: Induction of apoptosis in human CAL-27 cells assessed as viable cells at 1000 nM incubated for 72 hrs by Annexin V-FITC/propidium iodide staining based flow cytometry analysis (reference value: 90.41%); assay type: functional; conditions: read-out: Activity
# CAL-27 [3] = test: Antitumor activity against human CAL-27 cells xenografted in BALB/c mouse model assessed as cancer cell death at 0.6 mg/kg, iv treated four times a week for 30 days by HE staining analysis; assay type: functional, organism-based; conditions: time 30.0 day
# CAL-27 [4] = test: Effect on apoptosis in human CAL-27 cells assessed as regulation of gene expression at 1 nM incubated for 48 hrs by GSEA analysis; assay type: functional, cell-based
# CAL-27 [5] = test: Induction of cell cycle arrest in human CAL-27 cells assessed as accumulation of cells at S phase at 1 to 1000 nM incubated for 48 hrs by flow cytometry analysis (Rvb=18%); assay type: functional; conditions: dose 1-1000 nM
# CAL-27 [6] = test: Induction of apoptosis in human CAL-27 cells assessed as late apoptotic cells at 100 nM incubated for 72 hrs by Annexin V-FITC/propidium iodide staining based flow cytometry analysis (reference value: 1.82%); assay type: functional
# CAL-27 [7] = test: Induction of apoptosis in human CAL-27 cells assessed as apoptotic cells at 10 nM incubated for 72 hrs by Annexin V-FITC/propidium iodide staining based flow cytometry analysis (reference value: 10.29%); assay type: functional
# A549 = test: Cytotoxicity against human A549 cells incubated for 72 hrs by MTT assay; assay type: functional, cell-based; conditions: A549, 72 h
# CAL-27 [8] = test: Induction of apoptosis in human CAL-27 cells assessed as late apoptotic cells at 10 nM incubated for 72 hrs by Annexin V-FITC/propidium iodide staining based flow cytometry analysis (reference value: 1.82%); assay type: functional
# [9] = Toxicity in BALB/c mouse xenografted with human CAL-27 cells assessed as body weight at 0.3 mg/kg, iv treated four times a week for 30 days; assay type: organism-based; conditions: in vivo, 720 h, time 30 day
# CAL-27 [10] = test: Induction of apoptosis in human CAL-27 cells assessed as viable cells at 1 nM incubated for 72 hrs by Annexin V-FITC/propidium iodide staining based flow cytometry analysis (reference value: 90.41%); assay type: functional; conditions: read-out: Activity
# CAL-27 [11] = test: Antitumor activity against human CAL-27 cells xenografted in BALB/c mouse model assessed as reduction in reduction in Ki-67 expression at 0.6 mg/kg, iv treated four times a week for 30 days by immunohistochemical staining analysis; assay type: functional, organism-based; conditions: time 30.0 day
# CAL-27 [12] = test: Induction of apoptosis in human CAL-27 cells assessed as early apoptotic cells at 100 nM incubated for 72 hrs by Annexin V-FITC/propidium iodide staining based flow cytometry analysis (reference value: 7.74%); assay type: functional
# CAL-27 [13] = test: Antitumor activity against human CAL-27 cells xenografted in BALB/c mouse model assessed as reduction in tumor weight at 0.3 mg/kg, iv treated four times a week for 30 days; assay type: functional; design: scale not given: the % may be the effect or the level left; conditions: time 30 day
# CAL-27 [14] = test: Induction of apoptosis in human CAL-27 cells assessed as early apoptotic cells at 10 nM incubated for 72 hrs by Annexin V-FITC/propidium iodide staining based flow cytometry analysis (reference value: 7.74%); assay type: functional
# CAL-27 [15] = test: Induction of apoptosis in human CAL-27 cells assessed as late apoptotic cells at 1000 nM incubated for 72 hrs by Annexin V-FITC/propidium iodide staining based flow cytometry analysis (reference value: 1.82%); assay type: functional
# CAL-27 [16] = test: Induction of apoptosis in human CAL-27 cells assessed as early apoptotic cells at 1000 nM incubated for 72 hrs by Annexin V-FITC/propidium iodide staining based flow cytometry analysis (reference value: 7.74%); assay type: functional
# CAL-27 [17] = test: Antitumor activity against human CAL-27 cells xenografted in BALB/c mouse model assessed as reduction in nuclear division at 0.6 mg/kg, iv treated four times a week for 30 days by HE staining analysis; assay type: functional, organism-based; conditions: time 30.0 day
# CAL-27 [18] = test: Antiproliferative activity against human CAL-27 cells assessed as inhibition of cell communities at 1 uM treated for 11 days by plate clone formation assay; assay type: functional, cell-based; conditions: time 11.0 day
# CAL-27 [19] = test: Antitumor activity against human CAL-27 cells xenografted in BALB/c mouse model assessed as tumor volume change at 0.3 mg/kg, iv treated four times a week for 30 days; assay type: functional; conditions: CAL-27, 720 h, time 30 day, read-out: TGI
# CAL-27 [20] = test: Effect on cell adhesion molecule in human CAL-27 cells assessed as regulation of gene expression at 1 nM incubated for 48 hrs by GSEA analysis; assay type: functional, cell-based
# CAL-27 [21] = test: Induction of apoptosis in human CAL-27 cells assessed as apoptotic cells at 100 nM incubated for 72 hrs by Annexin V-FITC/propidium iodide staining based flow cytometry analysis (reference value: 10.29%); assay type: functional
# CAL-27 [22] = test: Induction of apoptosis in human CAL-27 cells assessed as viable cells at 100 nM incubated for 72 hrs by Annexin V-FITC/propidium iodide staining based flow cytometry analysis (reference value: 90.41%); assay type: functional; conditions: read-out: Activity
# CAL-27 [23] = test: Effect on cell growth factor in human CAL-27 cells assessed as regulation of cell growth factor related gene expression at 1 nM incubated for 48 hrs by GO analysis; assay type: functional, cell-based
# CAL-27 [24] = test: Induction of apoptosis in human CAL-27 cells assessed as late apoptotic cells at 1 nM incubated for 72 hrs by Annexin V-FITC/propidium iodide staining based flow cytometry analysis (reference value: 2.57%); assay type: functional
# CAL-27 [25] = test: Induction of apoptosis in human CAL-27 cells assessed as late apoptotic cells at 100 nM incubated for 72 hrs by Annexin V-FITC/propidium iodide staining based flow cytometry analysis (reference value: 2.57%); assay type: functional
# CAL-27 [26] = test: Induction of apoptosis in human CAL-27 cells assessed as late apoptotic cells at 10 nM incubated for 72 hrs by Annexin V-FITC/propidium iodide staining based flow cytometry analysis (reference value: 2.57%); assay type: functional
# CAL-27 [27] = test: Induction of apoptosis in human CAL-27 cells assessed as early apoptotic cells at 100 nM incubated for 72 hrs by Annexin V-FITC/propidium iodide staining based flow cytometry analysis (reference value: 9.16%); assay type: functional
# CAL-27 [28] = test: Induction of apoptosis in human CAL-27 cells assessed as viable cells at 1000 nM incubated for 72 hrs by Annexin V-FITC/propidium iodide staining based flow cytometry analysis (reference value: 88.23%); assay type: functional; conditions: read-out: Activity
# CAL-27 [29] = test: Induction of apoptosis in human CAL-27 cells assessed as viable cells at 1 nM incubated for 72 hrs by Annexin V-FITC/propidium iodide staining based flow cytometry analysis (reference value: 88.23%); assay type: functional; conditions: read-out: Activity
# CAL-27 [30] = test: Induction of apoptosis in human CAL-27 cells assessed as viable cells at 100 nM incubated for 72 hrs by Annexin V-FITC/propidium iodide staining based flow cytometry analysis (reference value: 88.23%); assay type: functional; conditions: read-out: Activity
# CAL-27 [31] = test: Induction of apoptosis in human CAL-27 cells assessed as late apoptotic cells at 1000 nM incubated for 72 hrs by Annexin V-FITC/propidium iodide staining based flow cytometry analysis (reference value: 2.57%); assay type: functional
# CAL-27 [32] = test: Induction of apoptosis in human CAL-27 cells assessed as viable cells at 10 nM incubated for 72 hrs by Annexin V-FITC/propidium iodide staining based flow cytometry analysis (reference value: 88.23%); assay type: functional; conditions: read-out: Activity
structure (smiles),measurement,setting,value
COc1cc2c(O[C@@H]3O[C@@H]4CO[C@@H](c5ccsc5)O[C@H]4[C@H](O)[C@H]3O)c3c(c(-c4ccc5c(c4)OCO5)c2cc1OC)C(=O)OC3,Activity,CAL-27 [1],15.78%
same,viability at 1 µM,CAL-27 [2],28.1%
same,Activity,CAL-27 [3],Active
same,Activity,CAL-27 [4],Active
same,Activity,CAL-27 [5],6%
same,Activity,CAL-27 [6],41.19%
same,Activity,CAL-27 [7],41.84%
same,IC50,A549,117 nM
same,Activity,CAL-27 [8],25.74%
same,Activity,[9],Non-toxic
same,viability at 0.001 µM,CAL-27 [10],93%
same,Activity,CAL-27 [11],Active
same,Activity,CAL-27 [12],27.61%
same,Activity,CAL-27 [13],34%
same,Activity,CAL-27 [14],16.27%
same,Activity,CAL-27 [15],36.94%
same,Activity,CAL-27 [16],25.35%
same,Activity,CAL-27 [17],Active
same,Activity,CAL-27 [18],Active; Showed More Potent Suppression
same,inhibition in vivo at 0.3 mg/kg,CAL-27 [19],29.2%
same,Activity,CAL-27 [20],Active
same,Activity,CAL-27 [21],50.9%
same,viability at 0.1 µM,CAL-27 [22],28.6%
same,Activity,CAL-27 [23],Active
COc1cc2c(O)c3c(c(-c4ccc5c(c4)OCO5)c2cc1OC)C(=O)OC3 [DIPHYLLIN],Activity,CAL-27 [24],5.83%
same,Activity,CAL-27 [25],2.58%
same,Activity,CAL-27 [26],1.34%
same,Activity,CAL-27 [27],4.87%
same,viability at 1 µM,CAL-27 [28],82.8%
same,viability at 0.001 µM,CAL-27 [29],91.4%
same,viability at 0.1 µM,CAL-27 [30],92.5%
same,Activity,CAL-27 [31],5.03%
same,viability at 0.01 µM,CAL-27 [32],94.8%

# From ChEMBL document CHEMBL6153048, “Synthesis and pharmacological evaluation of natural product diphyllin derivatives against head and neck squamous cell carcinoma” (Eur J Med Chem, 2025)
